According to BindingDB's records for doi:10.1021/acs.jmedchem.5b02042 (University of South Florida, 2016):

Target: Stromal cell-derived factor 1 (Homo sapiens, UniProt P48061)
Test: Binding affinity to His6-SUMO fusion tagged wild type human [U-15N]CXCL12 expressed in Escherichia coli by 2D 1H-15N HMQC NMR spectroscopy

Chain of Stromal cell-derived factor 1 (P48061 whole entry, the tested form may be a part): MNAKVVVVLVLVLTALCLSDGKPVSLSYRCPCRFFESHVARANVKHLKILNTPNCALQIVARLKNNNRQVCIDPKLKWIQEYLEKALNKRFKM

Row | SMILES | Kd [µM]
1 | CCCOc1ccc(C(Nc2ccc(F)cc2)P(=O)(O)O)cc1 (configuration not stated) | 1100
2 | O=C(O)CC1c2ccccc2CCN1C(=O)Nc1cccc(F)c1 (configuration not stated) | 4100
